# Measurements reported in BindingDB's records for PubMed 37866336 (The First Affiliated Hospital of China Medical University).
# Experiments:
# [1] = molecular target: Melatonin receptor type 1A (Homo sapiens, UniProt P48039); assay: Binding affinity to human MT1 receptor expressed in CHO cells assessed as inhibition constant by HTRF method
# [2] = molecular target: T1, Melatonin receptor type 1B (Homo sapiens, UniProt P49286); assay: Binding affinity to human MT2 receptor expressed in CHO cells assessed as inhibition constant by HTRF method
# T1 sequence (P49286 whole entry): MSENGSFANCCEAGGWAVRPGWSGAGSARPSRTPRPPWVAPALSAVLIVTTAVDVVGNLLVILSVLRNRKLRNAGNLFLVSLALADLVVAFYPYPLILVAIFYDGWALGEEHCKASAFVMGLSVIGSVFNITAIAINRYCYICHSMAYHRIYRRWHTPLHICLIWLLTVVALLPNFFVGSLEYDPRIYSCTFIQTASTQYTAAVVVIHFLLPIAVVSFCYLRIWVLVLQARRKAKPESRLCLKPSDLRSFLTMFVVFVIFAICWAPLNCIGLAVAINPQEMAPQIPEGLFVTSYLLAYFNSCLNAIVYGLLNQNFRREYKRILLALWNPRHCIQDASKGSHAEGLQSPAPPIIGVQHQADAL
# Chain of Melatonin receptor type 1A (P48039 whole entry): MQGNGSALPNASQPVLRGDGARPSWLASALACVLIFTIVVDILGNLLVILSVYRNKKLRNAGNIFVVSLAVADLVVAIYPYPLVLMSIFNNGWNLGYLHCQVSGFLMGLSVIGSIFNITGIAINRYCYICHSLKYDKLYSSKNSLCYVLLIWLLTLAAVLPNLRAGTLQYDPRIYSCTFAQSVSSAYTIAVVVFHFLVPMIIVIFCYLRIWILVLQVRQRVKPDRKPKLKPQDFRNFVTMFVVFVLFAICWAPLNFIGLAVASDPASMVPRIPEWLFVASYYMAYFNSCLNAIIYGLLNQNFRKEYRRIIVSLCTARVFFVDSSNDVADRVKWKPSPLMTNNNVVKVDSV
smiles,measurement,setting,value
CCCn1c(NC(=O)Cc2coc3cc(OC)ccc23)nc2ccccc21 [Name not given],Ki,[1],36 nM
N#CN1CC[C@@H](NC(=O)c2ccc(-c3cnc4nccn4c3)cc2F)C1 [Name not given],Ki,[2],36 nM
